Values after ≈ are worked out from the molar mass of the structure shown. Read-outs that look alike come from different tables or passages of the source.
Assays:
[1] = test system: murine B16F10 melanoma ascites tumour; assay: In vivo efficacy vs i.p. B16F10 melanoma ascites tumour; details: for Cure rate at optimal non-toxic dose / Optimal increase in life span (ILS): at non-toxic doses; for %ILS (group mean increase in lifespan) / Per cent cures (mice alive 60 days after inoculation) / Per cent toxicity (mice with premature death) / MST (mean survival time ± s.d.): q.d., i.p., days 1-5 after inoculation, BDF1 mice; for Efficacy against murine B16 ascites tumour compared with paclitaxel: mouse, in vivo
A549 = assay: In vitro tumour cell cytotoxicity, colorimetric MTT assay, 72 h; assay type: cell-based, human; details: 72 h exposure
[2] = test system: BDF mice bearing B16F10 ascites tumours; details: […]
P388 = assay: In vitro tumour cell cytotoxicity, colorimetric MTT assay, 72 h; assay type: cell-based, murine; details: 72 h exposure
HT-29 = assay: as above; assay type: cell-based, human; details: 72 h exposure
B16F10 = assay: as above; assay type: cell-based, murine; details: 72 h exposure
[3] = test system: human MX-1 xenograft solid tumour; details: for Cure rate / Delay in tumour growth compared with untreated controls: once daily on days 1-5 after inoculation
[4] = test system: A549, HT-29, B16F10 and P388 tumour cells; assay: In vitro cytotoxicity across the four tumour cell lines, compared with paclitaxel; assay type: cell-based; details: human and murine tumour cells
[5] = Pharmacokinetics following i.p. dosing in mice; details: for t1/2 / Cmax / Tmax / AUC / AUC value (rounded) / Cmax (rounded): 20 mg kg-1 i.p.; for t1/2 / Cmax / Tmax / AUC: male CD-1 mice; for t1/2 / AUC / AUC value (rounded) / Cmax (rounded): plasma; for Cmax / Tmax: plasma (Table VI); for AUC: 0-12 h, trapezoidal (Table VI); for AUC value (rounded) / Cmax (rounded): mice; for Serum concentrations compared with paclitaxel: at equal dosages
murine M109 solid tumour = assay: In vivo efficacy vs subcutaneous M109 solid tumour; details: for Days (1.0 g): days to reach mean tumour mass = 1.0 g ± s.d. / Delay (1.0 g): delay to reach mean tumour mass = 1.0 g, compared with untreated / Per cent cures (mice with no palpable tumours, day 60) / Per cent toxicity / TWI (per cent tumour weight inhibition when untreated control mean = 1.0 g): q.d., i.p., days 1, 5, 9 after inoculation, s.c. tumour, BDF1 mice; for Optimal dose: i.p. every fourth day for three total injections (days 1, 5, 9 after inoculation); for Delay in solid tumour growth to 1 g: paclitaxel at a non-toxic dose
[6] = i.p. once daily for 5 consecutive days
[7] = dose 12.5 mg kg-1 per day, q.d., i.p., days 1-5 after inoculation, s.c. xenograft, nude mice
[8] = dose 25 mg kg-1 per day, q.d., i.p., days 1-5 after inoculation, s.c. xenograft, nude mice
[9] = dose 50 mg kg-1 per day, q.d., i.p., days 1-5 after inoculation, s.c. xenograft, nude mice
[10] = dose 100 mg kg-1 per day, q.d., i.p., days 1-5 after inoculation, s.c. xenograft, nude mice

SMILES: CC(=O)OC12COC1CC(O)C1(C)C(O)C(O)C3=C(C)C(OC(=O)C(O)C(NC(=O)c4ccccc4)c4ccccc4)CC(O)(C(OC(=O)c4ccccc4)C21)C3(C)C (stereo not drawn) [Compound A-86415, 10-deacetyl-9-dihydrotaxol]
- Cure rate at optimal non-toxic dose [1, 6]: 10%
- Optimal increase in life span (ILS) [1, 6]: 83%
- %ILS (group mean increase in lifespan) ([1]; dose 25 mg kg-1 per day): 52%
- Per cent cures (mice alive 60 days after inoculation) ([1]; dose 25 mg kg-1 per day): 0%
- Per cent toxicity (mice with premature death) ([1]; dose 25 mg kg-1 per day): 0%
- %ILS (group mean increase in lifespan) ([1]; dose 50 mg kg-1 per day): 83%
- MST (mean survival time ± s.d.) ([1]; dose 50 mg kg-1 per day): 36.1 ± 4.5 days
- Per cent cures (mice alive 60 days after inoculation) ([1]; dose 50 mg kg-1 per day): 10%
- Per cent toxicity (mice with premature death) ([1]; dose 50 mg kg-1 per day): 0%
- %ILS (group mean increase in lifespan) ([1]; dose 100 mg kg-1 per day): 77%
- Per cent cures (mice alive 60 days after inoculation) ([1]; dose 100 mg kg-1 per day): 0%
- Per cent toxicity (mice with premature death) ([1]; dose 100 mg kg-1 per day): 0%
- Efficacy against murine B16 ascites tumour compared with paclitaxel [1]: as effective as paclitaxel
- IC50 (A549): 0.011 mg/L (≈ 0.0135 µM)
- MTD (q.d. days 1-5) [2]: greater than 100 mg kg-1 per day
- IC50 (P388): 0.014 mg/L (≈ 0.0172 µM)
- IC50 (HT-29): 0.0019 mg/L (≈ 0.00233 µM)
- IC50 (B16F10): 0.039 mg/L (≈ 0.0479 µM)
- Delay (1.0 g) (footnote: delay to reach mean tumour mass = 0.5 g, compared with untreated) [3, 7]: 0 days
- Per cent cures (mice with no palpable tumours, day 60) [3, 7]: 20%
- Per cent toxicity [3, 7]: 0%
- TWI (per cent tumour weight inhibition when untreated control mean = 0.5 g) [3, 7]: 27%
- Days to 1.0 g (footnote: days to reach mean tumour mass = 0.5 g ± s.d.) [3, 8]: 33.3 + 7.6 days
- Delay (1.0 g) (footnote: delay to reach mean tumour mass = 0.5 g, compared with untreated) [3, 8]: 5.4 days
- Per cent cures (mice with no palpable tumours, day 60) [3, 8]: 10%
- Per cent toxicity [3, 8]: 0%
- TWI (per cent tumour weight inhibition when untreated control mean = 0.5 g) [3, 8]: 73%
- Delay (1.0 g) (footnote: delay to reach mean tumour mass = 0.5 g, compared with untreated) [3, 9]: 14.7 days
- Per cent cures (mice with no palpable tumours, day 60) [3, 9]: 30%
- Per cent toxicity [3, 9]: 0%
- TWI (per cent tumour weight inhibition when untreated control mean = 0.5 g) [3, 9]: 99%
- Delay (1.0 g) (footnote: delay to reach mean tumour mass = 0.5 g, compared with untreated) [3, 10]: 33.1 days
- Per cent cures (mice with no palpable tumours, day 60) [3, 10]: 70%
- Per cent toxicity [3, 10]: 0%
- TWI (per cent tumour weight inhibition when untreated control mean = 0.5 g) [3, 10]: 100%
- Cure rate [3]: 70%
- Delay in tumour growth compared with untreated controls [3]: 33 days
- In vitro potency compared with paclitaxel [4]: generally less than that of paclitaxel
- t1/2 [5]: 2.8 h
- Cmax [5]: 11.19 ig ml-1
- Tmax [5]: 1.40 h
- AUC [5]: 29.81 ig per h ml-1
- AUC value (rounded) [5]: 30 jg h-1 ml-1
- Cmax (rounded) [5]: 11 jg ml-1
- Serum concentrations compared with paclitaxel [5]: less than paclitaxel
- Days (1.0 g): days to reach mean tumour mass = 1.0 g ± s.d. (murine M109 solid tumour; dose 25 mg kg-1 per day): 12.0+0 days
- Delay (1.0 g): delay to reach mean tumour mass = 1.0 g, compared with untreated (murine M109 solid tumour; dose 25 mg kg-1 per day): 0 days
- Per cent cures (mice with no palpable tumours, day 60) (murine M109 solid tumour; dose 25 mg kg-1 per day): 0%
- Per cent toxicity (murine M109 solid tumour; dose 25 mg kg-1 per day): 0%
- TWI (per cent tumour weight inhibition when untreated control mean = 1.0 g) (murine M109 solid tumour; dose 25 mg kg-1 per day): 10%
- Days (1.0 g): days to reach mean tumour mass = 1.0 g ± s.d. (murine M109 solid tumour; dose 50 mg kg-1 per day): 12.0+0 days
- Delay (1.0 g): delay to reach mean tumour mass = 1.0 g, compared with untreated (murine M109 solid tumour; dose 50 mg kg-1 per day): 0 days
- Per cent cures (mice with no palpable tumours, day 60) (murine M109 solid tumour; dose 50 mg kg-1 per day): 0%
- Per cent toxicity (murine M109 solid tumour; dose 50 mg kg-1 per day): 0%
- TWI (per cent tumour weight inhibition when untreated control mean = 1.0 g) (murine M109 solid tumour; dose 50 mg kg-1 per day): 19%
- Delay (1.0 g): delay to reach mean tumour mass = 1.0 g, compared with untreated (murine M109 solid tumour; dose 100 mg kg-1 per day): 5.1 days
- Per cent cures (mice with no palpable tumours, day 60) (murine M109 solid tumour; dose 100 mg kg-1 per day): 0%
- Per cent toxicity (murine M109 solid tumour; dose 100 mg kg-1 per day): 0%
- TWI (per cent tumour weight inhibition when untreated control mean = 1.0 g) (murine M109 solid tumour; dose 100 mg kg-1 per day): 79%
- Optimal dose (murine M109 solid tumour): 100 mg kg-1 injection
- Delay in solid tumour growth to 1 g (murine M109 solid tumour): 5.1 days

SMILES: CC(=O)O[C@@H]1C2=C(C)[C@@H](OC(=O)[C@H](O)[C@@H](NC(=O)c3ccccc3)c3ccccc3)C[C@@](O)([C@@H](OC(=O)c3ccccc3)[C@@H]3[C@]4(OC(C)=O)CO[C@@H]4C[C@H](O)[C@@]3(C)[C@H]1O)C2(C)C [Compound A-85576, 9-dihydrotaxol]
- Cure rate at optimal non-toxic dose [1, 6]: 0%
- Optimal increase in life span (ILS) [1, 6]: 39%
- %ILS (group mean increase in lifespan) ([1]; dose 25 mg kg-1 per day): 21%
- MST (mean survival time ± s.d.) ([1]; dose 25 mg kg-1 per day): 23.9 ± 4.3 days
- Per cent cures (mice alive 60 days after inoculation) ([1]; dose 25 mg kg-1 per day): 0%
- Per cent toxicity (mice with premature death) ([1]; dose 25 mg kg-1 per day): 0%
- %ILS (group mean increase in lifespan) ([1]; dose 50 mg kg-1 per day): 39%
- Per cent cures (mice alive 60 days after inoculation) ([1]; dose 50 mg kg-1 per day): 0%
- Per cent toxicity (mice with premature death) ([1]; dose 50 mg kg-1 per day): 0%
- %ILS (group mean increase in lifespan) ([1]; dose 100 mg kg-1 per day): 46%
- Per cent cures (mice alive 60 days after inoculation) ([1]; dose 100 mg kg-1 per day): 0%
- Per cent toxicity (mice with premature death) ([1]; dose 100 mg kg-1 per day): 20%
- Optimal dose [1, 6]: 50 mg/kg/day
- Efficacy against murine B16 ascites tumour compared with paclitaxel [1]: less effective
- IC50 (A549): 0.019 mg/L (≈ 0.0222 µM)
- IC50 (P388): 0.053 mg/L (≈ 0.0619 µM)
- IC50 (HT-29): 0.008 mg/L (≈ 0.00935 µM)
- IC50 (B16F10): 0.025 mg/L (≈ 0.0292 µM)
- Delay (1.0 g) (footnote: delay to reach mean tumour mass = 0.5 g, compared with untreated) [3, 7]: 1.6 days
- Per cent cures (mice with no palpable tumours, day 60) [3, 7]: 0%
- Per cent toxicity [3, 7]: 0%
- TWI (per cent tumour weight inhibition when untreated control mean = 0.5 g) [3, 7]: 31%
- Delay (1.0 g) (footnote: delay to reach mean tumour mass = 0.5 g, compared with untreated) [3, 8]: 5.9 days
- Per cent cures (mice with no palpable tumours, day 60) [3, 8]: 0%
- Per cent toxicity [3, 8]: 0%
- TWI (per cent tumour weight inhibition when untreated control mean = 0.5 g) [3, 8]: 65%
- Delay (1.0 g) (footnote: delay to reach mean tumour mass = 0.5 g, compared with untreated) [3, 9]: 12.4 days
- Per cent toxicity [3, 9]: 0%
- TWI (per cent tumour weight inhibition when untreated control mean = 0.5 g) [3, 9]: 94%
- Delay (1.0 g) (footnote: delay to reach mean tumour mass = 0.5 g, compared with untreated) [3, 10]: 21.1 days
- Per cent cures (mice with no palpable tumours, day 60) [3, 10]: 60%
- Per cent toxicity [3, 10]: 0%
- TWI (per cent tumour weight inhibition when untreated control mean = 0.5 g) [3, 10]: 98%
- Cure rate [3]: 60%
- Delay in tumour growth compared with untreated controls [3]: 21 days
- In vitro potency compared with paclitaxel [4]: generally less than that of paclitaxel
- t1/2 [5]: 1.9 h
- Cmax [5]: 40.32 ig ml-1
- Tmax [5]: 0.58 h
- AUC [5]: 75.62 ig per h ml-1
- AUC value (rounded) [5]: over 75 jg h-1 ml-1
- Cmax (rounded) [5]: 40 jg ml-1
- Serum concentrations compared with paclitaxel [5]: greater than paclitaxel
- Days (1.0 g): days to reach mean tumour mass = 1.0 g ± s.d. (murine M109 solid tumour; dose 25 mg kg-1 per day): 13.6+2.3 days
- Delay (1.0 g): delay to reach mean tumour mass = 1.0 g, compared with untreated (murine M109 solid tumour; dose 25 mg kg-1 per day): 1.6 days
- Per cent cures (mice with no palpable tumours, day 60) (murine M109 solid tumour; dose 25 mg kg-1 per day): 0%
- Per cent toxicity (murine M109 solid tumour; dose 25 mg kg-1 per day): 0%
- TWI (per cent tumour weight inhibition when untreated control mean = 1.0 g) (murine M109 solid tumour; dose 25 mg kg-1 per day): 34%
- Days (1.0 g): days to reach mean tumour mass = 1.0 g ± s.d. (murine M109 solid tumour; dose 50 mg kg-1 per day): 14.1+3.2 days
- Delay (1.0 g): delay to reach mean tumour mass = 1.0 g, compared with untreated (murine M109 solid tumour; dose 50 mg kg-1 per day): 2.1 days
- Per cent cures (mice with no palpable tumours, day 60) (murine M109 solid tumour; dose 50 mg kg-1 per day): 0%
- Per cent toxicity (murine M109 solid tumour; dose 50 mg kg-1 per day): 0%
- TWI (per cent tumour weight inhibition when untreated control mean = 1.0 g) (murine M109 solid tumour; dose 50 mg kg-1 per day): 46%
- Delay (1.0 g): delay to reach mean tumour mass = 1.0 g, compared with untreated (murine M109 solid tumour; dose 100 mg kg-1 per day): 10.5 days
- Per cent cures (mice with no palpable tumours, day 60) (murine M109 solid tumour; dose 100 mg kg-1 per day): 0%
- Per cent toxicity (murine M109 solid tumour; dose 100 mg kg-1 per day): 0%
- TWI (per cent tumour weight inhibition when untreated control mean = 1.0 g) (murine M109 solid tumour; dose 100 mg kg-1 per day): 90%
- Optimal dose (murine M109 solid tumour): 100 mg kg-1 injection
- Delay in solid tumour growth to 1 g (murine M109 solid tumour): 10.5 days

Source: publication PMC2074348, “Preclinical in vivo efficacy of two 9-dihydrotaxane analogues against human and murine tumours” (British Journal of Cancer, 1996)
